From patent publication US20250170116A1, “PHARMACEUTICAL COMPOSITION FOR PREVENTING AND/OR TREATING RENAL DISEASE” (priority 2022, published 2025) come the findings set out here.

Assay [1] concerns rats with puromycin aminonucleoside-induced kidney injury (focal segmental glomerulosclerosis / minimal change nephrotic syndrome model rats). The assay is described as follows: Test Example 1: action of Compound 011 in rats with puromycin aminonucleoside-induced kidney injury. To be noted: for urinary protein levels lower compared with PAN group: Bradford method. Type of assay: in vivo, S.D. rats. The protocol:
Eight-week-old S.D. rats (male, 8 rats) were intraperitoneally injected with 120 mg/kg of puromycin aminonucleoside (PAN) under anesthesia (day 0). PAN damages glomerular basement membrane cells (podocytes) and induces glomerular injury in rats. The PAN-treated rats were focal segmental glomerulosclerosis model rats and minimal change nephrotic syndrome model rats. The test compound (Compound 011) was mixed with food and administered (10 mg/kg/day) on or after the third day after the PAN injection. The rats were kept under a 12-hour light-dark cycle (lights on from 7:00 am to 7:00 pm, and lights off from 7:00 pm to 7:00 am the next morning), and food and water were provided ad libitum (PAN+011 group). Urine was collected on day 0, i.e., the day of PAN administration, and on days 3, 10, 20, and 27 after PAN administration. Urine was collected by placing the rats in metabolic cages for 17 hours (5:00 pm to 10:00 am the next morning). Separately, as controls, a group without PAN treatment and without test compound administration (control group, male, 3 animals), a group without PAN treatment but with test compound administration (control+011 group, male, 5 animals), and a group with PAN treatment but without test compound administration (PAN group, male, 9 animals) were also tested in the same manner. The urinary protein levels were measured by using the Bradford method. The serum albumin levels were measured by using an improved BCP (bromocresol purple) method. In the PAN group, the number of serum samples was 8 because one animal from which a serum sample was unable to be collected was excluded. On day 27 after PAN administration, the left kidney of each rat was removed, the size was visually observed, and the weight was measured. The number of left kidney samples of the control group was 3 because the left kidneys of three animals in this group were all removed and weighed. The number of left kidney samples of the control+011 group was 4 because the left kidneys of 4 of the 5 animals in this group were removed and weighed. The number of left kidney samples of the PAN group was 7 because the left kidneys of 7 of the 9 animals in this group were removed and weighed. The number of left kidney samples of the PAN+011 group was 7 because the left kidneys of 7 of the 8 animals in this group were removed and weighed.

For assay [2], the system named is rats with puromycin aminonucleoside-induced kidney injury (focal segmental glomerulosclerosis model rats). Briefly: Test Example 3: action of Compound 011 in PAN-treated rats with more severe symptoms for a longer period. Type of assay: in vivo, S.D. rats. As for the experimental part:
The action of Compound 011 on PAN-treated rats with more severe symptoms for a longer period of time than in Test Example 1 was studied. Eight-week-old S.D. rats (male, 8 rats) were intraperitoneally injected with 120 mg/kg of puromycin aminonucleoside (PAN) under anesthesia. Then, one month later, PAN was again injected intraperitoneally at 60 mg/kg. PAN creates focal segmental glomerulosclerosis model rats by disrupting glomerular basement membrane cells (podocytes) (Kim, J Mol Med, 2018, 96, 631-644). Furthermore, these model rats are known to develop chronic kidney damage accompanied by lymphocyte and macrophage infiltration (Ornellas, Sci Rep, 2019, 9:19604). The test compound (Compound 011) was mixed with food and administered (10 mg/kg/day) on or after the third day after the PAN injection. The rats were kept under a 12-hour light-dark cycle (lights on from 7:00 am to 7:00 pm, and lights off from 7:00 pm to 7:00 am the next morning), and food and water were provided ad libitum (PAN+011 group). Chronic proteinuria may sometimes occur after the first administration of PAN without a second administration of PAN. […] Two months after the first administration of PAN, the kidneys of the rats were removed, their sizes were visually observed, and their weights were measured. The number of kidney samples was 4 for the PAN group and was 6 for the PAN+011 group. Subsequently, the kidneys were fixed with 4% paraformaldehyde/PBS and then paraffin-embedded, and sections were prepared. The sections were treated with PAS (periodic acid-Schiff) staining, and PAS-stained positive areas (inflammatory cell areas) were evaluated. To extract RNA, a portion of tissue around the surface layer of the kidney was quickly frozen to −80° C. cDNA was produced from RNA extracted from the tissue by reverse transcriptase, and gene expression was evaluated by real-time PCR. TB Green Premix Ex Taq II (Takara Bio Inc.) was used as a reagent for the reaction, and a QuantStudio 5 system (Thermo Fisher) was used for the analysis.

Setting [3] is: PAN+011 group vs PAN group, two months after PAN.
[4] abbreviates: PAN+011 group, after 2 months, 10 mg/kg/day mixed with food, *p<0.03.

SMILES strings stand for the structures.

As to `O=C(O)c1cnc(N2CCN(c3noc4cccc(C(F)(F)F)c34)CC2)c(Cl)c1` [Compound 011, 5-Chloro-6-(4-(4-(trifluoromethyl)benzo[d]isoxazol-3-yl)piperazin-1-yl)nicotinic acid], the “urinary protein levels lower compared with PAN group” value in assay [1] (PAN+011 group vs PAN group, day 10 after PAN, 10 mg/kg/day mixed with food) came out at 38%. The serum albumin levels entry in assay [1] (PAN+011 group vs PAN group, day 27, improved BCP method, **p<0.01) was “almost no PAN-treatment-induced decrease in serum albumin levels”. Besides, the “left kidney weight per rat body weight” value in assay [1] (PAN+011 group vs PAN group, day 27 after PAN) is listed as “smaller increase in kidney weights”. Moreover, the “urinary protein levels lower compared with PAN group” value in assay [1] (PAN+011 group vs PAN group, day 27 after PAN, 10 mg/kg/day mixed with food) turned out to be 48%. Besides, the “urinary protein levels, control+011 group vs control group” value in assay [1] (rats without PAN treatment, 10 mg/kg/day mixed with food) is recorded as “No difference”. Further, in assay [2] (setting [3]), the “CD4 expression level in kidney tissue (quantitative PCR, relative to GAPDH)” value is on record as “significantly decreased”; the “CD86 expression level in kidney tissue (quantitative PCR, relative to GAPDH)” value is listed as “significantly decreased”; the “TGF-β expression level in kidney tissue (quantitative PCR, relative to GAPDH)” value is on record as “significantly decreased”. In assay [2] (setting [4]), the “left kidney weight per rat body weight, decrease compared with PAN group” value is 29% and the “right kidney weight, decrease compared with PAN group” value turned out to be 28%. The “suppression of formation of tertiary lymphoid tissue-like structures (PAS-stained positive area)” value in assay [2] (kidney sections two months after PAN, on average) is recorded as ≥ 50%.
